In patent publication US20240016941A1, “COMBINATION THERAPY” (priority 2020, published 2024):
Entries after “also recorded” stand apart in the source; their conditions may differ.

Experiments:
[1] = target: T1, LasB elastase activity of dialysed supernatant from P. aeruginosa PAO1 (Pseudomonas aeruginosa, UniProt P14756); test: Elastin Congo-Red assay to determine % inhibition (dialysed PAO1 supernatant); type: biochemical; settings: read-out: Elastin hydrolysis % inhibition @ 25 μM inhibitor concentration
T1 construct: Culture supernatants are recovered by centrifugation and filtrated through a 0.22 μM filter; endogenous in cells; host or cells: P. aeruginosa strain PAO1, culture supernatant, filtered and dialysed
Description: (§1) Experiments were therefore conducted (1) to measure the potency of inhibition of compounds of the invention against purified Pseudomonas aeruginosa LasB enzyme and also experiments were conducted (2) to measure the ability of compounds of the invention to inhibit LasB-catalysed elastin degradation. The first assay uses a commercial fluorescent synthetic peptide and purified LasB enzyme. The LasB hydrolysis kinetics are measured allowing the determination of the IC50 and Ki of the inhibitors; the second is a more physiological assay using dialysed Pseudomonas aeruginosa supernatant as source of enzyme, plus its natural substrate Elastin. It is an “end point assay” that determines the percentage of LasB inhibition by each compound for one particular time point and inhibitor concentration. Technical details are described below:
The Elastin assay uses as source of enzyme dialysed supernatant from P. aeruginosa PAO1 and the Elastin Congo-Red as substrate. The natural LasB substrate, elastin, is complexed with the congo-red dye (Elastin Congo-Red, ECR). The elastolysis activity from the culture supernatant will degrade elastin and release the congo-red dye into the supernatant. This red dye release can be measured with a spectrophotometer.
Method: To determine LasB elastase activity and assess compound inhibition, an overnight culture of P. aeruginosa strain PAO1 is diluted in LB medium. After reaching an OD600nm of 0.6, this culture is diluted and incubated for additional 18-24 hours in a shaking incubator. Culture supernatants are recovered by centrifugation and filtrated through a […] filter. These supernatants are dialysed (filtration molecules <20 kDa) into a 50 mM Tris-HCl pH 7.4, 2.5 mM CaCl2 solution at 4° C. under agitation for 24 hours. Supernatant dialysed is then mixed volume/volume with the ECR suspension (20 mg/mL of ECR in 100 mM Tris-HCl pH 7.4 buffer supplemented with 1 mM CaCl2)) supplemented with Triton X100 (final concentration of 0.01%) in presence of DMSO (positive control) and/or different concentrations of compound (routinely 50 to 1.56 μM). As a negative control, the dialysed supernatant is replaced by Tris-HCl solution (50 mM Tris-HCl pH 7.4, 2.5 mM CaCl2). The mixed reaction is then incubated overnight in a 37° C. shaking incubator. The reaction supernatant is recovered by centrifugation and the release of congo-red is measured by its absorbance at 495 nm (OD495nm).
Percentage inhibition is determined using the following equation:
((OD495 nm value of positive control−OD495nm value of negative control)−(OD495nm value of treated supernatant−OD495nm value of negative control))/(OD495nm value of positive control−OD495nm value of negative control)×100.

[2] = target: purified LasB (Pseudomonas aeruginosa, UniProt P14756); test: Inhibition of LasB-mediated hydrolysis of pro-IL-1β to IL-1β (FRET peptide); type: biochemical
Description: Hydrolysis of this FRET peptide was continuously monitored using a Victor multimode plate reader (Perkin Elmer) with excitation 355 nm and emission at 450 nm in the presence of varying concentrations of compounds of the invention. Inhibitory constants (Ki) were determined for certain compounds of the invention (at least 2 independent replicates) using a competitive inhibitor model.

[3] = target: T2, purified LasB protein from P. aeruginosa (Pseudomonas aeruginosa, UniProt P14756); test: Fluorometric assay to determine Ki (purified LasB, Abz-Ala-Gly-Leu-Ala-p-Nitro-Benzyl-Amide substrate); type: biochemical
T2 construct: purchased Merck or Charles River Laboratories
Description: as §1
This assay uses commercially available substrate (Abz-Ala-Gly-Leu-Ala-p-Nitro-Benzyl-Amide (Ex: 340 nm, Em: 415 nm) from Peptide International) and purified LasB protein from P. aeruginosa (provided by Merck or Charles River Laboratories). It is performed to determine LasB elastase activity and assess compound inhibition in 96-well plate format. All compounds of Formula (I) were assessed using the method described below.
Method: 10 to 140 ng/ml purified LasB is incubated with 250 μM Abz-Ala-Gly-Leu-Ala-p-Nitro-Benzyl-Amide in 50 mM Tris-HCl pH 7.4, 2.5 mM CaCl2), 0.01% of Triton X100 at 37° C. LasB activity (corresponding to fluorescence emission induced by substrate hydrolysis) is measured over 30 min at 37° C. with a fluorescence plate reader such as the Perkin Elmer Envision or similar. Different range of inhibitor concentrations are routinely assessed depending of inhibitor potency from 0.0016 to 200 μM (2-fold dilutions series) in order to determine IC50.
The equation used to calculate the Ki from IC50 is: Ki=IC50/(1+([S]/Km)) where [S]=250 μM and Km=214 μM.

[4] = test system: F508del-CFTR cells; test: Forskolin-activated CFTR response in CF-mutant human bronchial epithelial cells (membrane potential dye); type: cell-based
Description: This example describes experiments showing that LasB impacted CFTR function in CF mutant cells can be mitigated by treatment with CFTR modulators and LasB inhibitors.
Wild Type human bronchial epithelial (HBE) cells and CF-mutant human bronchial epithelial cells (F508del-CFTR) are grown at 37° C. for 5 days and loaded onto 96-well plate cultures. The cells are loaded with blue membrane potential dye dissolved in chloride-free buffer. The plate is read in a fluorescence plate reader at 37° C. (excitation: 530 nm; emission; […]). CFTR is stimulated with forskolin.
A control signal defined as 100% transmission is obtained from WT human bronchial epithelial cells alone. A minor suppression of forskolin-activated CFTR response is expected for such WT cells in the presence of LasB.
Moderate suppression in the forskolin-activated CFTR response will be observed for CF-mutant cells. This moderate suppression will be reduced by addition of a CFTR modulator such as VX-809 (lumacaftor).
Substantial suppression in the forskolin-activated CFTR response is expected for CF-mutant cells in the presence of LasB, even following the addition of a CFTR modulator, due to the deleterious effect of LasB on expressed CFTR protein.

[5] = test system: PA (PAO1); test: Mouse model of Pseudomonas aeruginosa lung infection; type: in vivo; settings: mice infected with wild-type PAO1, i.v. 1 h and 2 h post infection, 10 and 30 mg/kg, 24 hours post infection
Description: Mice were dosed by intranasal inoculation of PA (PAO1), then sacrificed after 24 hours. The extent of infection in the lung was quantified by bacterial load (CFU determination, colony forming units) and the levels of proinflammatory IL-1β. Statistical analysis on both readouts were performed by ANOVA with a Dunnett post-test.
Compounds were administered intravenously in a two-dose regimen (1 hour and 2 hours post infection) at two different doses (10 and 30 mg/kg).

[6] = test system: cells infected by tobramycin-resistance PA bacteria; settings: combination with CFTR modulators, tobramycin-resistant PA; cited from earlier work

T2 sequence (P14756 198-498): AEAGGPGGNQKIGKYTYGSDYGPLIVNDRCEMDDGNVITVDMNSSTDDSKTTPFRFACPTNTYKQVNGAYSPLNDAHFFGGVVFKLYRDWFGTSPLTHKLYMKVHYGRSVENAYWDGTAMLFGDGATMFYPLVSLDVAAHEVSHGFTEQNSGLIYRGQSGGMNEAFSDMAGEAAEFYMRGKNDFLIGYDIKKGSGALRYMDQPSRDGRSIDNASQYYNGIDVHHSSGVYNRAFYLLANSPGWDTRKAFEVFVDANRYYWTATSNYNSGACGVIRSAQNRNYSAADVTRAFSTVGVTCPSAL
purified LasB, sequence (P14756 198-498): as above
T1 sequence (P14756 198-498): as above

| SMILES | inhibition at 25 µM [1] [%] | Ki [2] [nM] | Ki [3] [nM] | also measured |
| --- | --- | --- | --- | --- |
| COc1cc2sc(CNC(=O)C3(CC(=O)O)Cc4ccccc4C3)nc2cc1OCCN1CCOCC1 [Example 9, 2-[2-[[6-methoxy-5-(2-morpholinoethoxy)-1,3-benzothiazol-2-yl]methylcarbamoyl]indan-2-yl]acetic acid] | > 80 | 160 | < 50 |  |
| COc1cc2sc(CNC(=O)C3(CC(=O)O)Cc4cc(F)c(F)cc4C3)nc2cc1OCC1CCN(C)CC1 [Example 11, 2-[5,6-difluoro-2-[[6-methoxy-5-[(1-methyl-4-piperidyl)methoxy]-1,3-benzothiazol-2-yl]methylcarbamoyl]indan-2-yl]acetic acid] | > 80 | 220 | < 50 |  |
| COc1cc2sc(CNC(=O)C3(CC(=O)[O-])Cc4cc(F)c(F)cc4C3)nc2cc1OCCC[N+]1(C)CCCC1 [Example 19, 2-[5,6-difluoro-2-[[6-methoxy-5-[3-(1-methylpyrrolidin-1-ium-1-yl)propoxy]-1,3-benzothiazol-2-yl]methylcarbamoyl]indan-2-yl]acetate] | > 80 | 270 | < 50 |  |
| COc1cc2sc(CNC(=O)C3(CC(=O)[O-])Cc4ccccc4C3)nc2cc1OCCC[N+](C)(C)CCO [Example 20, 2-[2-[[5-[3-[2-hydroxyethyl(dimethyl)ammonio]propoxy]-6-methoxy-1,3-benzothiazol-2-yl]methylcarbamoyl]indan-2-yl]acetate] | 60 to 80 | 340 | < 50 |  |
| COc1cc2sc(CNC(=O)C3(CC(=O)[O-])Cc4ccccc4C3)nc2cc1OCCC[N+](C)(CCO)CCO [Example 22, 2-[2-[[5-[3-[bis(2-hydroxyethyl)-methyl-ammonio]propoxy]-6-methoxy-1,3-benzothiazol-2-yl]methylcarbamoyl]indan-2-yl]acetate] | 60 to 80 | 400 | < 50 |  |
| COc1cc2sc(CNC(=O)C3(CC(=O)[O-])Cc4cc(F)c(F)cc4C3)nc2cc1OCC1CC[N+](C)(C)CC1 [Example 44, 2-[2-[[5-[(1,1-dimethylpiperidin-1-ium-4-yl)methoxy]-6-methoxy-1,3-benzothiazol-2-yl]methylcarbamoyl]-5,6-difluoro-indan-2-yl]acetate] | > 80 | 300 | < 50 |  |
| COc1cc2sc(CNC(=O)C3(CC(=O)O)Cc4ccccc4C3)nc2cc1S(=O)(=O)N1CCC(N(C)C)CC1 [Example 46, 2-[2-[[5-[[4-(dimethylamino)-1-piperidyl]sulfonyl]-6-methoxy-1,3-benzothiazol-2-yl]methylcarbamoyl]indan-2-yl]acetic acid] | 60 to 80 |  | 50 to 200 |  |
| COc1cc2sc(CNC(=O)C3(CC(=O)[O-])Cc4ccccc4C3)nc2cc1S(=O)(=O)N1CCC([N+](C)(C)C)CC1 [Example 47, 2-[2-[[6-methoxy-5-[[4-(trimethylammonio)-1-piperidyl]sulfonyl]-1,3-benzothiazol-2-yl]methylcarbamoyl]indan-2-yl]acetate] | 60 to 80 |  | 50 to 200 |  |
| N#Cc1ccc2nc(CNC(=O)C3(CC(=O)O)Cc4ccccc4C3)sc2c1 [Example 48, 2-[2-[(6-cyano-1,3-benzothiazol-2-yl)methylcarbamoyl]indan-2-yl]acetic acid] | 60 to 80 |  | 50 to 200 |  |
| N#Cc1ccc2sc(CNC(=O)C3(CC(=O)O)Cc4ccccc4C3)nc2c1 [Example 49, 2-[2-[(5-cyano-1,3-benzothiazol-2-yl)methylcarbamoyl]indan-2-yl]acetic acid] | 60 to 80 |  | 50 to 200 |  |
| COc1cc2sc(CNC(=O)C3(CC(=O)[O-])Cc4ccccc4C3)nc2cc1OCCC[N+](C)(C)C [Example 53, 2-[2-[[6-methoxy-5-[3-(trimethylammonio)propoxy]-1,3-benzothiazol-2-yl]methylcarbamoyl]indan-2-yl]acetate] |  | 700 | < 50 | Maximum forskolin-activated response of CFTR channels compared to WT human bronchial epithelial cells ([4]; F508del-CFTR cells + 10 μM VX-809 + 0.01 μM LasB + 10 μM Example 53): forskolin-activated CFTR response being substantially restored; also recorded: Minor suppression of CFTR; extent of infection in the lung (CFU levels) [5]: reduced the extent of infection in the lung to the level of the LasB deleted mutant; production and activation of IL-1β in the lung [5]: inhibited the production and activation of IL-1β in mice infected by wild-type PA (PA01) at a similar level than the lasB deleted mutant |
| COc1cc2sc(CNC(=O)C3(CC(=O)[O-])Cc4cc(F)c(F)cc4C3)nc2cc1OCCOCC[N+](C)(C)C [Example 55, 2-[5,6-difluoro-2-[[6-methoxy-5-[2-[2-(trimethylammonio)ethoxy]ethoxy]-1,3-benzothiazol-2-yl]methylcarbamoyl]indan-2-yl]acetate] |  | 420 | < 50 |  |
| Cc1ccc(NC(=O)C2(c3ccc4c(c3)OC(F)(F)O4)CC2)nc1-c1cccc(C(=O)O)c1 [VX-809, lumacaftor, reference compound] |  |  |  | Maximum forskolin-activated response of CFTR channels compared to WT human bronchial epithelial cells ([4]; F508del-CFTR cells + 10 μM VX-809): Minor suppression of CFTR; Maximum forskolin-activated response of CFTR channels compared to WT human bronchial epithelial cells ([4]; F508del-CFTR cells + 10 μM VX-809 + 0.01 μM LasB): substantial suppression of CFTR |
| NC[C@H]1O[C@H](O[C@H]2[C@H](O)[C@@H](O[C@H]3O[C@H](CO)[C@@H](O)[C@H](N)[C@H]3O)[C@H](N)C[C@@H]2N)[C@H](N)C[C@@H]1O [tobramycin] |  |  |  | restoration of CFTR function [6]: incapable of restoring CFTR function |
